Reference: patent publication US20140377340A1, “HLA-DR BINDING PEPTIDES AND THEIR USES” (priority 2007, published 2014)

Key:
purified HLA DRB1*0301 = biological target: T1, purified HLA DRB1*0301 (Homo sapiens, UniProt P01903+P01911, A100K/A102G/A103R/A169T/F55Y/I96L/K41T/L162R/M171V/P40S/Q125H/Q178H/Q39Y/R42S/S66N/T106N/T262R/W38E/Y61H); experiment: HLA-DR radioligand binding inhibition assay, DRB1*0301; conditions: IC50 nM purified HLA DRB1 *0301, purified HLA DRB1*0301
T1 construct: purified from EBV transformed homozygous cell lines or single MHC allele transfected 721.221, C1R, or fibroblast lines; made in house
Experimental: (§1) Instead, wells of an opaque white 96-well Optiplate (Packard) are coated with 3 μg (100 μl@ 30 μg/ml) of HLA-specific antibody (Ab) that “capture” complexes of radiolabeled MHC and unlabeled peptide transferred from the molecular binding assay plate in 100 μl of 0.05% NP40/PBS. After a 3-hour incubation period, the supernatant is decanted and scintillation fluid (Microscint 20) added. Captured complexes are then measured on a microplate scintillation and luminescence counter (TopCount NXTTM; Packard).
(§2) HLA-DR purification. Fifteen distinct HLA-DR molecules were used in quantitative assays to measure the binding of peptides to solubilized HLA-DR molecules. […] Briefly, columns of inactivated Sepharose CL4B and Protein A Sepharose were used as pre-columns. HLA-DR molecules were captured by passage of lysates over LB3.1 monoclonal antibody (anti-HLA-DRA) columns. Antibody columns were washed with 10 mM Tris-HCL, pH8.0 with 1% (v/v) NP-40, followed by PBS containing 0.4% (w/v) n-octylglucoside.
(§3) Briefly, 1-10 nM of radiolabeled peptide was co-incubated for 2 days at either room temperature or 37° C. with 1 μM to 1 nM purified HLA-DR molecules in the presence of a cocktail of protease inhibitors. Assays were performed at various pH conditions, ranging from pH 4 to pH 7. […] After incubation, the percentage of HLA-DR-bound radioactivity is determined by capturing HLA-DR/peptide complexes on Optiplates (Packard Instruments, Meriden, Conn.) coated with the LB3.1 antibody and determining bound counts per minute using the TopCount microscintillation counter (Packard Instruments).

purified HLA DRB1*0401 = biological target: T2, purified HLA DRB1*0401 (Homo sapiens, UniProt P01903+P01911, A100K/A169T/F76Y/I96L/K127E/L162R/M171V/N62H/P40V/Q125Y/R42H/S133A/S149N/S66Y/V115G/V209L/W38E); experiment: HLA-DR radioligand binding inhibition assay, DRB1*0401; conditions: IC50 nM purified HLA DRB1 *0401, purified HLA DRB1*0401
T2 construct: purified from EBV transformed homozygous cell lines or single MHC allele transfected 721.221, C1R, or fibroblast lines; made in house
Outline: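 First, HLA-DR was purified from lysates on LB3.1 columns. Then 1 μM to 1 nM protein was incubated 2 days with 1-10 nM radiolabeled peptide at pH 4 to 7. Finally, complexes were captured for 3 hours and bound cpm determined.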

purified HLA DRB1*0802 = biological target: T3, purified HLA DRB1*0802 (Homo sapiens, UniProt P01903+P01911, A100R/A103L/A169T/F76Y/H45Y/I96F/K41T/L162R/M171V/P40S/Q125H/Q178H/Q39Y/Q99D/R218S/R42G/S66Y/V115G/W38E); experiment: HLA-DR radioligand binding inhibition assay, DRB1*0802; conditions: IC50 nM purified HLA DRB1 *0802, purified HLA DRB1*0802
T3 construct: purified from EBV transformed homozygous cell lines or single MHC allele transfected 721.221, C1R, or fibroblast lines; made in house
Experimental: as §1
as §2, with “n-octylglucoside. […] The pH was reduced to 8.0 and the eluates were concentrated by centrifugation in Centriprep 30 concentrators at 2000 rpm (Amicon, Beverly, Mass.).” for “n-octylglucoside.”
as §3, with “Instruments). […] Competitor peptides are tested in 2-4 complete, independent experiments, at concentrations ranging from […].” for “Instruments).”

purified HLA DRB1*1201 = biological target: T4, purified HLA DRB1*1201 (Homo sapiens, UniProt P01903+P01911, A100R/A169T/D57E/D86V/F55L/H45Y/K41T/L162R/M171V/P40S/Q125H/Q178H/Q39Y/Q99D/R42G/S66L/T262R/V114A/V67L/W38E/Y59H/Y61H/Y89S); experiment: HLA-DR radioligand binding inhibition assay, DRB1*1201
T4 construct: purified from EBV transformed homozygous cell lines or single MHC allele transfected 721.221, C1R, or fibroblast lines; made in house
Experimental: as §1
as §2, with “n-octylglucoside. […] The pH was reduced to 8.0 and the eluates were concentrated by centrifugation in Centriprep 30 concentrators at 2000 rpm (Amicon, Beverly, Mass.).” for “n-octylglucoside.”
as §3, with “Instruments). […] Competitor peptides are tested in 2-4 complete, independent experiments, at concentrations ranging from […].” for “Instruments).”

purified HLA DRB3*0101 = biological target: T5, purified HLA DRB3*0101 (Homo sapiens, UniProt P01903+P79483); experiment: HLA-DR radioligand binding inhibition assay, DRB3*0101; conditions: IC50 nM purified HLA DRB3 *0101, purified HLA DRB3*0101
T5 construct: purified from EBV transformed homozygous cell lines or single MHC allele transfected 721.221, C1R, or fibroblast lines; made in house
Experimental: as §1
as §2, with “n-octylglucoside. […] The pH was reduced to 8.0 and the eluates were concentrated by centrifugation in Centriprep 30 concentrators at 2000 rpm (Amicon, Beverly, Mass.).” for “n-octylglucoside.”
as §3, with “Instruments). […] Competitor peptides are tested in 2-4 complete, independent experiments, at concentrations ranging from […].” for “Instruments).”

[1] = test system: short term T cell lines from breast or ovarian cancer patients; experiment: IFN-γ ELISpot analysis of short term T cell lines (peptide versus protein fragment; natural processing); assay type: cell-based, human; conditions: T cell lines respond to culture peptide and to protein fragment; FIGS. 5 and 6
From the text: IFN-γ ELISpot analysis of short term T cell lines generated against HER-2/neu peptides, p53 (Panel A), p83 (Panel B), p88 (Panel C) and p885 (Panel D). […] Each bar is the mean (s.e.m.) of three replicates.
FIG. 6 is identical to FIG. 5 except that the results were obtained using IGFBP-2 derived helper epitopes.

[2] = test system: 15 different HLA-DR molecules; experiment: HLA-DR binding assays, panel of 15 different HLA-DR molecules (breadth of binding); conditions: number of the 15 HLA-DR molecules bound (binders: 1000 nM or better)

SMILES	IC50 (purified HLA DRB1*0301) [nM]	IC50 (purified HLA DRB1*0401) [nM]	IC50 (purified HLA DRB1*0802) [nM]	IC50 (purified HLA DRB1*1201) [nM]	IC50 (purified HLA DRB3*0101) [nM]	naturally processed and presented antigen [1]	Total XRN [2]
CSCC[C@H](NC(=O)[C@H](C)NC(=O)[C@@H](N)CCCNC(=N)N)C(=O)N[C@@H](CC(C)C)C(=O)N[C@@H](CCCCN)C(=O)N[C@@H](C)C(=O)N[C@@H](CCC(=O)O)C(=O)N[C@@H](CCC(=O)O)C(=O)N[C@H](C(=O)N[C@@H](CS)C(=O)N[C@@H](C)C(=O)N1CCC[C@H]1C(=O)N[C@@H](CO)C(=O)N[C@H](C(=O)N[C@@H](CO)C(=O)O)C(C)C)[C@@H](C)O [Peptide 9019.0148]	> 20000	360	> 20000	> 20000	> 20000	–	–
CC(C)C[C@H](NC(=O)[C@H](CC(C)C)NC(=O)[C@H](CC(C)C)NC(=O)[C@H](CC(C)C)NC(=O)[C@H](CC(C)C)NC(=O)[C@H](CC(C)C)NC(=O)[C@@H]1CCCN1C(=O)[C@H](CC(C)C)NC(=O)[C@H](CC(C)C)NC(=O)[C@@H]1CCCN1C(=O)[C@H](CC(C)C)NC(=O)[C@@H](N)CC(C)C)C(=O)NCC(=O)N[C@@H](C)C(=O)N[C@@H](CO)C(=O)O [Peptide 9019.0176]	–	–	–	–	–	naturally processed peptides	10
CC(C)C[C@H](NC(=O)[C@H](CC(C)C)NC(=O)[C@H](CC(C)C)NC(=O)[C@H](CC(C)C)NC(=O)[C@H](CC(C)C)NC(=O)[C@H](CC(C)C)NC(=O)[C@@H]1CCCN1)C(=O)NCC(=O)N[C@@H](C)C(=O)N[C@@H](CO)C(=O)NCC(=O)NCC(=O)NCC(=O)NCC(=O)NCC(=O)O [Peptide 9019.0177]	–	–	–	–	–	naturally processed peptides	4
CC[C@H](C)[C@H](NC(=O)[C@H](CC(C)C)NC(=O)[C@H](CCCCN)NC(=O)CNC(=O)[C@@H](N)[C@@H](C)O)C(=O)N[C@@H](CCC(N)=O)C(=O)NCC(=O)N[C@@H](C)C(=O)N1CCC[C@H]1C(=O)N[C@H](C(=O)N[C@H](C(=O)N[C@@H](CCCNC(=N)N)C(=O)NCC(=O)N[C@@H](CC(=O)O)C(=O)N1CCC[C@H]1C(=O)O)[C@@H](C)CC)[C@@H](C)O [Peptide 9019.0192]	–	–	–	–	–	naturally processed peptides	9
